Assay results: US20100003217A1, “Compounds and Pharmaceutical Compositions for the Treatment of Viral Infections” (priority 2008, published 2010)
“And” between values parts separate entries of the source, which are not always exact repeats. Identical values can stand only once.

Test system: human primary hepatocytes
Test: Metabolic disposition of [^14C]-Compound 1 and [^14C]-2′-C-methyl guanosine in human primary hepatocytes (incubation medium, cellular extracts, nucleotide levels)
Type: in vitro ADME
Conditions: for AUC (area under the concentration-time curve) of Compound 7 levels: 0-24 h
Description: Primary hepatocytes: Freshly isolated cells from animal and human liver were obtained in suspension on ice. Cells were pelleted by centrifugation at 70-75×g (rat) or 95-90×g (monkey and human) and resuspended at 0.8 million cells per mL of platting medium (William's E supplemented with 5% FBS, 0.5% penicillin-streptomycin, 1% L-glutamine, 4 μg/mL insulin and 1 μM dexamethasone). Multi-well collagen I-coated plates (rat tail collagen type I; 12- or 6-well) were then seeded by addition of 1 mL (12-well; 0.8 million cells/well) or 2 mL (6-well; 1.6 million cells/well) of cell suspension. The plates were gently shaken to evenly distribute the cells and placed in an incubator at 37° C. for approximately 4 to 6 hours to allow cells to attach. Once cells were attached, the platting medium was removed and replaced with hepatocyte culture medium (William's E supplemented with penicillin-streptomycin, 1% L-glutamine, 1% insulin-transferrin-selenium and 0.1 μM dexamethasone). Cells were left overnight in an incubator at 37° C. to acclimatize to culture and the medium.
Hepatocyte incubations with radiolabeled Compound 1 and 2′-C-methyl guanosine, both labeled in the C-8 position of the guanine moiety, were conducted at a final volume of 2.0 mL hepatocyte culture medium/well ([…]). Culture medium from overnight incubation of cells was removed and replaced with fresh medium, pre-warmed to 37° C., containing 1 or 10 μM [^14C]-Compound 1 ([…]) or [^14C]-2′-C-methyl guanosine (127 DPM/μmol) from a stock solution in DMSO (final DMSO concentration was 0.1%) or 50% ethanol (final ethanol concentration was 0.2%). After 1, 4, 8 and 24 hours, 0.5-1.0 mL of incubation medium was removed and stored at −20° C. until analysis (described below). The remaining medium was discarded and cell monolayers were carefully washed two times with ice-cold PBS. Following the last wash, all PBS was carefully removed and 1.0 mL of extraction solution (ice-cold 70% methanol) added. Cells were scrapped off and suspended in the extraction solution, transferred to 2 mL polypropylene microfuge tubes and intracellular contents extracted overnight at −20° C.
Preliminary identification of putative metabolites was conducted by comparing the retention time of observed metabolites in incubation medium and cellular extracts with retention times obtained with chemically synthesized standards using the chromatography conditions described below. Further identification of 2′-C-methyl guanosine nucleotides (mono-, di- and triphosphate) was carried out by incubating cellular extract samples with alkaline phosphatase (10 units for 60 min at 37° C.) and comparing the HPLC retention times of the resulting nucleosides with that of authentic 2′-C-methyl guanosine.
Cellular extracts were prepared by centrifugation at 16,000 RCF using an Eppendorf microcentrifuge (Eppendorf, Model 5415D) for 10 min to remove cellular debris. An aliquot of 5-10 μL of the supernatant was added to 5 mL of EcoLite™ (MP, Irvine, Calif.) liquid scintillation cocktail and radioactivity measured by liquid scintillation counting (LSC) using a Beckman Coulter LS6500 multipurpose liquid scintillation counter (Beckman Instruments, Fullerton, Calif.). The remaining sample was then dried using a Labconco refrigerated centrivap concentrator (Labconco, Kansas City, Mo.). Dry extracts were reconstituted in 120 μL of HPLC-grade water and centrifuged at 16,000 RCF using an Eppendorf microcentrifuge for 10 min. Prior to HPLC analysis (described below), radioactivity of the concentrated extracts was measured by LSC using 5 μL aliquots. Extraction recovery was then determined by comparing total radioactivity in extracts before and after drying. The remaining extract was then analyzed by HPLC with online radioactivity detection using a Flow Scintillation Analyzer Radiomatic™ 515TR. Radioactivity in the separated components was quantified by integrating the peaks using Flo-One™ Software (Perkin Elmer Life Sciences). […]

[1] = human hepatocytes (Hu775), 1 μM [^14C]-Compound 1, 1 h
[2] = human hepatocytes (Hu775), 1 μM [^14C]-Compound 1, 8 h
[3] = human hepatocytes (Hu775), 1 μM [^14C]-Compound 1, 24 h
[4] = human hepatocytes Hu775, 1 μM [^14C]-2′-C-methyl guanosine, 1 h
[5] = human hepatocytes Hu775, 1 μM [^14C]-2′-C-methyl guanosine, 8 h
[6] = human hepatocytes Hu775, 1 μM [^14C]-2′-C-methyl guanosine, 24 h

metabolites observed in cellular extracts (% of total radioactivity) (human hepatocytes (Hu759, Hu775), 10 μM [^14C]-2′-C-methyl guanosine, 1 h): 2.40% and 3.93%
metabolites observed in cellular extracts (% of total radioactivity) (human hepatocytes (Hu759, Hu775), 10 μM [^14C]-2′-C-methyl guanosine, 4 h): 11.1% and 19.4%
metabolites observed in cellular extracts (% of total radioactivity) (human hepatocytes (Hu759, Hu775), 10 μM [^14C]-2′-C-methyl guanosine, 8 h): 19.6% and 34.1%
metabolites observed in cellular extracts (% of total radioactivity) (human hepatocytes (Hu759, Hu775), 10 μM [^14C]-2′-C-methyl guanosine, 24 h): 36.1% and 45.8%
metabolites observed in cellular extracts (% of total radioactivity) (human hepatocytes (Hu759, Hu775), 10 μM [^14C]-Compound 1, 1 h): 34.2% and 46.4%
metabolites observed in cellular extracts (% of total radioactivity) (human hepatocytes (Hu759, Hu775), 10 μM [^14C]-Compound 1, 4 h): 63.1% and 69.7%
metabolites observed in cellular extracts (% of total radioactivity) (human hepatocytes (Hu759, Hu775), 10 μM [^14C]-Compound 1, 8 h): 70.5% and 74.1%
metabolites observed in cellular extracts (% of total radioactivity) (human hepatocytes (Hu759, Hu775), 10 μM [^14C]-Compound 1, 24 h): 69.5% and 59.6%
2′-C-methyl guanosine nucleotide levels in cellular extracts [1]: 8.80 pmol/million cells
metabolites observed in cellular extracts (% of total radioactivity) [1]: 48.5%
2′-C-methyl guanosine nucleotide levels in cellular extracts [2]: 44.2 pmol/million cells
metabolites observed in cellular extracts (% of total radioactivity) [2]: 75.0%
2′-C-methyl guanosine nucleotide levels in cellular extracts [3]: 60.4 pmol/million cells
metabolites observed in cellular extracts (% of total radioactivity) [3]: 67.0%
Compound 7 AUC0-24h (human hepatocytes (n=1), 1 μM [^14C]-2′-C-methyl guanosine): 302 pmol*h/million cells
Compound 7 AUC0-24h (human hepatocytes (n=1), 1 μM [^14C]-Compound 1): 1,027 pmol*h/million cells
Compound 7 AUC0-24h (human hepatocytes (n=2), 10 μM [^14C]-Compound 1, mean): 7,398 pmol*h/million cells
2′-C-methyl guanosine nucleotide levels in cellular extracts (human hepatocytes Hu759, 10 μM [^14C]-2′-C-methyl guanosine, 0 h): 0 pmol/million cells
AUC (area under the concentration-time curve) of Compound 7 levels (human hepatocytes Hu759, 10 μM [^14C]-2′-C-methyl guanosine): 2871 pmol * hr/million cells
2′-C-methyl guanosine nucleotide levels in cellular extracts (human hepatocytes Hu759, 10 μM [^14C]-2′-C-methyl guanosine, 1 h): 9.70 pmol/million cells
2′-C-methyl guanosine nucleotide levels in cellular extracts (human hepatocytes Hu759, 10 μM [^14C]-2′-C-methyl guanosine, 4 h): 51.0 pmol/million cells
2′-C-methyl guanosine nucleotide levels in cellular extracts (human hepatocytes Hu759, 10 μM [^14C]-2′-C-methyl guanosine, 8 h): 96.0 pmol/million cells
2′-C-methyl guanosine nucleotide levels in cellular extracts (human hepatocytes Hu759, 10 μM [^14C]-2′-C-methyl guanosine, 24 h): 214 pmol/million cells
2′-C-methyl guanosine nucleotide levels in cellular extracts (human hepatocytes Hu759, 10 μM [^14C]-Compound 1, 0 h): 0 pmol/million cells
AUC (area under the concentration-time curve) of Compound 7 levels (human hepatocytes Hu759, 10 μM [^14C]-Compound 1): 5759 pmol * hr/million cells
2′-C-methyl guanosine nucleotide levels in cellular extracts (human hepatocytes Hu759, 10 μM [^14C]-Compound 1, 1 h): 24.0 pmol/million cells
2′-C-methyl guanosine nucleotide levels in cellular extracts (human hepatocytes Hu759, 10 μM [^14C]-Compound 1, 4 h): 166 pmol/million cells
2′-C-methyl guanosine nucleotide levels in cellular extracts (human hepatocytes Hu759, 10 μM [^14C]-Compound 1, 8 h): 225 pmol/million cells
2′-C-methyl guanosine nucleotide levels in cellular extracts (human hepatocytes Hu759, 10 μM [^14C]-Compound 1, 24 h): 360 pmol/million cells
AUC (area under the concentration-time curve) of Compound 7 levels (human hepatocytes Hu775, 1 μM [^14C]-2′-C-methyl guanosine): 302 pmol * hr/million cells
2′-C-methyl guanosine nucleotide levels in cellular extracts [4]: 1.90 pmol/million cells
Major metabolites observed in cellular extracts (% of total radioactivity) [4]: 5.36 % of total radioactivity
2′-C-methyl guanosine nucleotide levels in cellular extracts [5]: 11.0 pmol/million cells
Major metabolites observed in cellular extracts (% of total radioactivity) [5]: 27.3 % of total radioactivity
2′-C-methyl guanosine nucleotide levels in cellular extracts [6]: 21.0 pmol/million cells
Major metabolites observed in cellular extracts (% of total radioactivity) [6]: 46.3 % of total radioactivity
AUC (area under the concentration-time curve) of Compound 7 levels (human hepatocytes Hu775, 1 μM [^14C]-Compound 1): 1027 pmol * hr/million cells
2′-C-methyl guanosine nucleotide levels in cellular extracts (human hepatocytes Hu775, 10 μM [^14C]-2′-C-methyl guanosine, 0 h): 0 pmol/million cells
AUC (area under the concentration-time curve) of Compound 7 levels (human hepatocytes Hu775, 10 μM [^14C]-2′-C-methyl guanosine): 3548 pmol * hr/million cells
2′-C-methyl guanosine nucleotide levels in cellular extracts (human hepatocytes Hu775, 10 μM [^14C]-2′-C-methyl guanosine, 1 h): 18.5 pmol/million cells
2′-C-methyl guanosine nucleotide levels in cellular extracts (human hepatocytes Hu775, 10 μM [^14C]-2′-C-methyl guanosine, 8 h): 149 pmol/million cells
2′-C-methyl guanosine nucleotide levels in cellular extracts (human hepatocytes Hu775, 10 μM [^14C]-2′-C-methyl guanosine, 24 h): 215 pmol/million cells
2′-C-methyl guanosine nucleotide levels in cellular extracts (human hepatocytes Hu775, 10 μM [^14C]-Compound 1, 0 h): 0 pmol/million cells
AUC (area under the concentration-time curve) of Compound 7 levels (human hepatocytes Hu775, 10 μM [^14C]-Compound 1): 9036 pmol * hr/million cells
2′-C-methyl guanosine nucleotide levels in cellular extracts (human hepatocytes Hu775, 10 μM [^14C]-Compound 1, 4 h): 216 pmol/million cells
2′-C-methyl guanosine nucleotide levels in cellular extracts (human hepatocytes Hu775, 10 μM [^14C]-Compound 1, 8 h): 366 pmol/million cells
2′-C-methyl guanosine nucleotide levels in cellular extracts (human hepatocytes Hu775, 10 μM [^14C]-Compound 1, 24 h): 564 pmol/million cells
Compound 7 maximal levels (human hepatocytes, 1 μM [^14C]-Compound 1): 60.4 pmol/million cells
Maximum Compound 7 levels (human hepatocytes, 10 μM [^14C]-2′-C-methyl guanosine, at 24 hours): 215 pmol/million cells
Maximum Compound 7 levels (human hepatocytes, 10 μM [^14C]-Compound 1, at 24 hours, mean of two donors): 296 pmol/million cells
Compound: C[C@@]1(O)[C@H](O)[C@@H](COP(=O)(O)OP(=O)(O)OP(=O)(O)O)O[C@H]1n1cnc2c(=O)[nH]c(N)nc21 [Compound 7, [(2R)-2-methyl-β-D-ribofuranosyl]guanine 5′-triphosphate]
2′-C-methyl guanosine nucleotide levels in cellular extracts (human hepatocytes Hu775, 10 μM [^14C]-2′-C-methyl guanosine, 4 h): 86 pmol/million cells and 86.0 pmol/million cells
2′-C-methyl guanosine nucleotide levels in cellular extracts (human hepatocytes Hu775, 10 μM [^14C]-Compound 1, 1 h): 54 pmol/million cells and 54.0 pmol/million cells
